Measurements published in US4055637A, “Medicinal preparation for healing wounds and treating dermatites using 1-(chloromethyl)silatrane” (priority 1975, dated 1977).

Assay: solubility and physical properties of the active principle
Format: physicochemical

For `ClC[Si]12OCCN(CCO1)CCO2` [1-(chloromethyl)silatrane], the solubility in alcohol (alcohol) was “difficultly soluble”, the solubility in chloroform (chloroform) was “readily soluble” and the sterilizability (dry state) was “sterilizable in a dry state”. The solubility in ether (ether) was “insoluble”, the solubility in water (water) was “poorly soluble” and the hygroscopicity (white crystalline powder) was “non-hygroscopic”.
